# In patent publication US5780509A, “Compound bearing two, 2,6-diiodophenol-4-YL groups and diagnostic drug for iodine allergy” (Muromachi Kagaku Kogyo Kaisha, Ltd., priority 1994, dated 1998):
# Non-standard residues stand in square brackets, D forms with d. Residues, ends and D or L forms follow the SMILES beside them. No end group written: not given here. Tyr(3,5-I2) = N[C@@H](Cc1cc(I)c(O)c(I)c1)C(=O)O
# Assays:
# [1] = tested on: anti-iodine antibody; experiment: ELISA inhibition on anti-iodine antibody (single concentration); format: binding, guinea-pig; parameters: key to ELISA inhibitory activity, judgment: +: a compound had inhibitory activity; -: a compound did not have inhibitory activity
# Procedure: (§1) Guinea-pigs were immunized with iodine by injecting subcutaneously 1 mg of iodine containing potassium iodide solution treated with complete Freund's adjuvant seven times at intervals of 2 weeks, and anti-iodine antiserum was obtained from these animals. Antibody titers of the sera were determined by enzyme linked immunosorbent assay (ELISA) using 96 well microplate coated with iodinated guinea pig serum albumin (I-GSA) ELISA inhibition activities of the following compounds were studied. The compounds used were potassium iodide, tyrosine and its derivatives such as L-tyrosine, monoiodo-L-tyrosine, diiodotyrosine, hexaiodo-L-trityrosine, L-hexatyrosine and 12 iodo-L-hexatyrosine, and iodinated X-ray contrast media such as amidotrizoic acid, iodamide, ioxaglic acid, iohexol, iopamidol and iomeprol.
# (§2) ELISA inhibition study was performed as follows. Antibody concentration of anti-iodine antiserum gave the maximum optical density in ELISA till one hundredfold serum dilution. Accordingly, seven steps of twofold serial dilution of anti-iodine antiserum, starting from 50-fold serum dilution, were made with physiological saline as a diluent. To each of the serially diluted sera, were added equal volume of solution containing each of the test compounds described above. After overnight incubation at 4 C, antibody activity was determined by ELISA. Phosphate buffered physiological saline (PBS) was used as a control. ELISA inhibitory activities of the test compounds were determined at the serum dilution which gave about 50% of the maximum optical density (OD415nm =2.6) of ELISA of control at serum dilution of one hundredfold. The inhibitory activity was calculated by the following calculation formula.
# Inhibition rate=[1-Optical density under test compouund/Optical density
# [2] = tested on: guinea-pigs immunized with iodine (iodine-sensitized) and non-sensitized guinea-pigs; experiment: Active cutaneous anaphylaxis (ACA) reaction, elicitation antigenicity; format: in vivo, guinea-pig (male SPF, Hartley strain); parameters: key to Mean diameter of blue spots, non-sensitized guinea-pig / Mean diameter of blue spots, iodine-sensitized guinea pig (second value) / Mean diameter of blue spots, iodine-sensitized guinea pig (first value): --: Negative response; **: Weak response; details: for Mean diameter of blue spots, iodine-sensitized guinea pig (first value) / Mean diameter of blue spots, iodine-sensitized guinea pig (second value) / Mean diameter of blue spots, non-sensitized guinea-pig: 30 min; for ACA reaction (in words): intradermal injection, guinea-pigs sensitized with iodine
# Source text: The elicitation antigenicity of iodinated tyrosine derivatives was studied in the bases of the active cutaneous anaphylaxis (ACA) reaction in guinea-pigs immunized with iodine.
# Animals: Male SPF guinea-pigs of Hartley strain, weighing 300~350 g were purchased from Charles River Japan Co., Ltd. These were immunized after having been acclimated for one week.
# Sensitization: A solution of iodine potassium iodide (Wako Junyaku, special grade reagent) and complete Freund's adjuvant (Difco) were mixed in equal amounts to form an emulsion. This was administered subcutaneously into the back of guinea-pigs at a dose of 2 mg of iodine per animal 3 times at intervals of 2 weeks. Active cutaneous anaphylaxis (ACA) was elicited 2 weeks after the last sensitization injection.
# ACA Induction: 2% Evans blue physiological solution (0.5 ml/animal) was administered intravenously to guinea-pigs, and immediately thereafter 0.1 ml of an elicitation antigen was administered intradermally into the back, and after 30 min. the existence of pigment leakage at the intradermally injected sites was observed.
# Elicitation antigen: Iodinated dityrosine, iodinated trityrosine, iodinated dityrosylphenylalanine were administered intracutaneously at 0.1 ml/site. Guinea-pig serum albumin (fraction V: Sigma) was iodinated and used as a positive control. Corresponding noniodinated ones were also administered intradermally as negative controls.
# Iodination reaction: To a 50 mM boric acid buffer solution (pH 9.5) of 10 mg/ml of dityrosine, trityrosine, or dityrosylphenylalanine (all produced by Sigma Co., Ltd.) or guinea-pig serum albumin (abbreviated hereafter as GSA), a 0.5M solution of iodine was added at a ratio of 10:1, and these were reacted at 37 C. overnight. The excess iodine in the reaction mixture was reduced by adding sodium thiosulfate (Nakarai Chemical Co., Ltd.). For purification of the iodinated tyrosine derivatives, the reaction mixture was extracted with ethyl acetate and dried with magnesium sulfate, and hexane was added to obtain crystals. For purification of the iodinated GSA, the reaction mixture was purified by passing it through a Sephadex G25 column.
# [3] = tested on: anti-iodine antibody; experiment: ELISA inhibition potency (OD50) on anti-iodine antibody; format: binding, guinea-pig; details: serial twofold dilution, equal volume of 50-fold diluted anti-iodine antiserum; read-out: Inhibitory activity (OD50): concentration which decreased optical density of ELISA to a half of the control
# Procedure: as §1, §2
# In the next, ELISA inhibition study was undertaken to determine the potency of ELISA inhibitory activity of active compounds. […] The inhibitory activity was expressed as the concentration which decreased optical density of ELISA to a half (OD50) of the control.
compound,measurement,setting,value
C[C@H](O)C(=O)Nc1c(I)c(C(=O)NC(CO)CO)c(I)c(C(=O)NC(CO)CO)c1I [Iopamidol],ELISA inhibition rate,[1]; 10 mM,-6.5%
same,"ELISA inhibitory activity, judgment",[1]; 10 mM,+
[I-].[K+] [Potassium iodide],ELISA inhibition rate,[1]; 10 mM,0%
same,"ELISA inhibitory activity, judgment",[1]; 10 mM,-
CN(C(=O)CO)c1c(I)c(C(=O)NCC(O)CO)c(I)c(C(=O)NCC(O)CO)c1I (stereo not shown) [Iomeprol],ELISA inhibition rate,[1]; 10 mM,-1.8%
same,"ELISA inhibitory activity, judgment",[1]; 10 mM,+
"N[C@@H](Cc1cc(I)c(O)c(I)c1)C(=O)N[C@@H](Cc1cc(I)c(O)c(I)c1)C(=O)N[C@@H](Cc1ccccc1)C(=O)O [Iodinated dityrosylphenylalanine] (H-[Tyr(3,5-I2)]-[Tyr(3,5-I2)]-Phe-OH)","Mean diameter of blue spots, iodine-sensitized guinea pig (first value)",[2]; 1 μg/site intradermal,--
same,"Mean diameter of blue spots, iodine-sensitized guinea pig (second value)",[2]; 1 μg/site intradermal,--
same,"Mean diameter of blue spots, non-sensitized guinea-pig",[2]; 1 μg/site intradermal,--
same,"Mean diameter of blue spots, iodine-sensitized guinea pig (first value)",[2]; 10 μg/site intradermal,7.0 mm
same,"Mean diameter of blue spots, iodine-sensitized guinea pig (second value)",[2]; 10 μg/site intradermal,--
same,"Mean diameter of blue spots, non-sensitized guinea-pig",[2]; 10 μg/site intradermal,--
same,"Mean diameter of blue spots, iodine-sensitized guinea pig (first value)",[2]; 100 μg/site intradermal,8.0 mm
same,"Mean diameter of blue spots, iodine-sensitized guinea pig (second value)",[2]; 100 μg/site intradermal,3.0 mm
same,"Mean diameter of blue spots, non-sensitized guinea-pig",[2]; 100 μg/site intradermal,--
same,ACA reaction (in words),[2],ACA reaction was elicited
N[C@@H](Cc1cc(I)c(O)c(I)c1)C(=O)O [Diiodo-L-tyrosine],IC50,[3],5 mM
same,ELISA inhibition rate,[1]; 10 mM,100%
same,"ELISA inhibitory activity, judgment",[1]; 10 mM,+
N[C@@H](Cc1ccc(O)cc1)C(=O)N[C@@H](Cc1ccc(O)cc1)C(=O)O [reference compound] (H-Tyr-Tyr-OH),"Mean diameter of blue spots, iodine-sensitized guinea pig (first value)",[2]; 1000 μg/site intradermal,--
same,"Mean diameter of blue spots, iodine-sensitized guinea pig (second value)",[2]; 1000 μg/site intradermal,--
same,"Mean diameter of blue spots, non-sensitized guinea-pig",[2]; 1000 μg/site intradermal,--
N[C@@H](Cc1ccc(O)c(I)c1)C(=O)O [Monoiodo-L-tyrosine],ELISA inhibition rate,[1]; 10 mM,5.6%
same,"ELISA inhibitory activity, judgment",[1]; 10 mM,-
"N[C@@H](Cc1ccc(O)cc1)C(=O)N[C@@H](Cc1ccc(O)cc1)C(=O)N[C@@H](Cc1ccc(O)cc1)C(=O)O [Trityrosine, trityrosine, reference compound] (H-Tyr-Tyr-Tyr-OH)","Mean diameter of blue spots, iodine-sensitized guinea pig (first value)",[2]; 1000 μg/site intradermal,--
same,"Mean diameter of blue spots, iodine-sensitized guinea pig (second value)",[2]; 1000 μg/site intradermal,--
same,"Mean diameter of blue spots, non-sensitized guinea-pig",[2]; 1000 μg/site intradermal,--
"N[C@@H](Cc1cc(I)c(O)c(I)c1)C(=O)N[C@@H](Cc1cc(I)c(O)c(I)c1)C(=O)O (H-[Tyr(3,5-I2)]-[Tyr(3,5-I2)]-OH)","Mean diameter of blue spots, iodine-sensitized guinea pig (first value)",[2]; 1 μg/site intradermal,--
same,"Mean diameter of blue spots, iodine-sensitized guinea pig (second value)",[2]; 1 μg/site intradermal,--
same,"Mean diameter of blue spots, non-sensitized guinea-pig",[2]; 1 μg/site intradermal,--
same,"Mean diameter of blue spots, iodine-sensitized guinea pig (first value)",[2]; 10 μg/site intradermal,5.0 mm
same,"Mean diameter of blue spots, iodine-sensitized guinea pig (second value)",[2]; 10 μg/site intradermal,--
same,"Mean diameter of blue spots, non-sensitized guinea-pig",[2]; 10 μg/site intradermal,--
same,"Mean diameter of blue spots, iodine-sensitized guinea pig (first value)",[2]; 100 μg/site intradermal,7.0 mm
same,"Mean diameter of blue spots, iodine-sensitized guinea pig (second value)",[2]; 100 μg/site intradermal,5.0 mm
same,"Mean diameter of blue spots, non-sensitized guinea-pig",[2]; 100 μg/site intradermal,--
same,ACA reaction (in words),[2],ACA reaction was elicited
"N[C@@H](Cc1cc(I)c(O)c(I)c1)C(=O)N[C@@H](Cc1cc(I)c(O)c(I)c1)C(=O)N[C@@H](Cc1cc(I)c(O)c(I)c1)C(=O)N[C@@H](Cc1cc(I)c(O)c(I)c1)C(=O)N[C@@H](Cc1cc(I)c(O)c(I)c1)C(=O)N[C@@H](Cc1cc(I)c(O)c(I)c1)C(=O)O [12 iodo-L-hexatyrosine] (H-[Tyr(3,5-I2)][Tyr(3,5-I2)][Tyr(3,5-I2)][Tyr(3,5-I2)][Tyr(3,5-I2)][Tyr(3,5-I2)]-OH)",IC50,[3],0.125 mM
same,ELISA inhibition rate,[1]; 1 mM,94.3%
same,"ELISA inhibitory activity, judgment",[1]; 1 mM,+
CNC(=O)c1c(I)c(C(=O)NCC(=O)Nc2c(I)c(C(=O)O)c(I)c(C(=O)NCCO)c2I)c(I)c(N(C)C(C)=O)c1I [Ioxaglic acid],ELISA inhibition rate,[1]; 10 mM,-9.4%
same,"ELISA inhibitory activity, judgment",[1]; 10 mM,+
CC(=O)N(CC(O)CO)c1c(I)c(C(=O)NCC(O)CO)c(I)c(C(=O)NCC(O)CO)c1I (stereo not shown) [Iohexol],ELISA inhibition rate,[1]; 10 mM,-5.0%
same,"ELISA inhibitory activity, judgment",[1]; 10 mM,+
N[C@@H](Cc1ccc(O)cc1)C(=O)O [L-Tyrosine],ELISA inhibition rate,[1]; 10 mM,-2.6%
same,"ELISA inhibitory activity, judgment",[1]; 10 mM,-
YYYYYY [L-Hexatyrosine],ELISA inhibition rate,[1]; 1 mM,0%
same,"ELISA inhibitory activity, judgment",[1]; 1 mM,-
CC(=O)Nc1c(I)c(NC(C)=O)c(I)c(C(=O)O)c1I [Amidotrizoic acid],ELISA inhibition rate,[1]; 10 mM,0.3%
same,"ELISA inhibitory activity, judgment",[1]; 10 mM,-
CC(=O)NCc1c(I)c(NC(C)=O)c(I)c(C(=O)O)c1I [Iodamide],ELISA inhibition rate,[1]; 10 mM,3.5%
same,"ELISA inhibitory activity, judgment",[1]; 10 mM,+
"N[C@@H](Cc1ccc(O)cc1)C(=O)N[C@@H](Cc1ccc(O)cc1)C(=O)N[C@@H](Cc1ccccc1)C(=O)O [Dityrosylphenylalanine, L-tyrosyl-L-tyrosylphenylalanine, reference compound] (H-Tyr-Tyr-Phe-OH)","Mean diameter of blue spots, iodine-sensitized guinea pig (first value)",[2]; 1000 μg/site intradermal,--
same,"Mean diameter of blue spots, iodine-sensitized guinea pig (second value)",[2]; 1000 μg/site intradermal,--
same,"Mean diameter of blue spots, non-sensitized guinea-pig",[2]; 1000 μg/site intradermal,--
